Source: patent US10195218B2, “Crystallization method and bioavailability” (GRUNENTHAL GMBH, priority 2016, dated 2019)
Where two headings read alike, the source gives them in different places.

How the values were obtained:
[1] = Rat PK study: plasma concentrations of zoledronic acid after IV, oral gavage or intraduodenal (ID) dosing, LC/MS/MS; type: in vivo, Sprague-Dawley Rats
Protocol: These studies were conducted on rats and dogs as they are suitable animal models for zoledronic acid. This can be attributed to the fact that both animals have historically been used in the safety evaluation and PK screening studies and are recommended by appropriate regulatory agencies. […] Pure zoledronic acid and zoledronic acid complexes prepared by the methods in this invention were delivered to the rats and dogs through IV or oral routes. Additional tests included ID administration in rats and administration of enteric coated capsules in dogs. All compounds delivered were well tolerated by the animals with no adverse events or physical abnormalities noticed. […] USA. Surgical catheters (jugular vein and intraduodenum) were implanted to the animals prior to the study. […] Surgical catheters (jugular vein) were implanted prior to the study. […] Zoledronic acid and its complex formulations were administered through IV, oral and ID. […] The dose of each rat was calculated on a per rat basis (not on an average weight of all the rats in the lot). • ii. Oral gavage administration: solid suspensions were administered. The dose of each rat was calculated on a per rat basis (not on an average weight of all the rats in the lot). […] Duodenal cannula administration: solid suspensions were administered. The dose of each rat was calculated on a per rat basis (not on an average weight of all the rats in the lot). […] Group I (IV administration). Group members, designated IV doses are listed below IV comparator group, was conducted to calculate MAT (mean absorption time) and ka (absorption rate constant) for the oral groups. Group II (oral gavage): Group designations and oral doses are listed below: Group III (ID administration): Group designations and oral doses are listed below: Group IV (oral gavage): Group designations and oral doses are listed below: […] Samples were thawed on the day of analysis and the amount of zoledronic acid in the samples was quantified by analyzed by LC/MS/MS method.

[2] = Dog PK study: serum concentrations of zoledronic acid after IV or oral (gelatin capsule, enteric or non-enteric coated, with or without excess coformer, micronized) dosing, LC/MS/MS; type: in vivo; conditions: beagle, Leg 1, IV 0.05 mg/kg, saline solution, time 0 hour (pre-dose), read-out: Average serum concentration of 5 dogs
Protocol: Surgical catheters (jugular vein and intraduodenum) were implanted to the animals prior to the study. Beagle dogs from Marshall Farms, N.Y., USA, weighing from (9-12 kg) were used in this study. Surgical catheters (jugular vein) were implanted prior to the study.
IV Administration: The dose volume of each dog was adjusted based upon the average weight of the dog. • ii.
Prior to dosing, all dogs received a 20 mL dose of citric acid (24 mg/mL in water) to lower the pH of their stomach. After dosing capsules or IV, all dogs received additional 6.25 mL citric acid solution (24 mg/mL in water) as a rinse.
Group A, (IV administration). Group members, designated IV doses are listed below:
Group B (oral administration): Group designations and oral doses are listed below:
Group C (oral administration): Group designations and oral doses are listed below:
Group D, (15 min IV infusion): Group members, designated IV doses are listed below:
Group E, (oral administration): Group members, designated IV doses are listed below:
Group F, (15 min IV infusion): Group members, designated IV doses are listed below: […]

[3] = cited from earlier work
[4] = cited from earlier work; remark: listed apart in the source
[5] = Aqueous solubility at room temperature; type: physicochemical; conditions: water
[6] = ID (duodenal cannula) 5 mg/kg zoledronic acid equivalent, PEG 400, time 8 hour
[7] = ID (duodenal cannula) 5 mg/kg zoledronic acid equivalent, PEG 400, time 24 hour
[8] = PO gavage 5 mg/kg zoledronic acid equivalent, PEG 400, time 24 hour (Table 1)
[9] = molar concentration of the complex

Compound: Zoledronic, L-lysine, and water complex
- Average plasma concentration of 3 Rats ([1]; ID (duodenal cannula) 5 mg/kg zoledronic acid equivalent, PEG 400, time 0.25 hour): 91.21 ng/mL
- Average plasma concentration of 3 Rats ([1]; ID (duodenal cannula) 5 mg/kg zoledronic acid equivalent, PEG 400, time 1 hour): 26.53 ng/mL
- Average plasma concentration of 3 Rats ([1]; ID (duodenal cannula) 5 mg/kg zoledronic acid equivalent, PEG 400, time 4 hour): 0.74 ng/mL
- Average plasma concentration of 3 Rats [1, 6]: 0.00 ng/mL
- Average plasma concentration of 3 Rats [1, 7]: 0.00 ng/mL
- Average plasma concentration of 3 Rats ([1]; PO gavage 5 mg/kg zoledronic acid equivalent, PEG 400, time 0.25 hour (Table 1)): 258.43 ng/mL
- Average plasma concentration of 3 Rats ([1]; PO gavage 5 mg/kg zoledronic acid equivalent, PEG 400, time 0.5 hour (Table 1)): 249.82 ng/mL
- Average plasma concentration of 3 Rats ([1]; PO gavage 5 mg/kg zoledronic acid equivalent, PEG 400, time 1 hour (Table 1)): 184.95 ng/mL
- Average plasma concentration of 3 Rats ([1]; PO gavage 5 mg/kg zoledronic acid equivalent, PEG 400, time 4 hour (Table 1)): 28.70 ng/mL
- Average plasma concentration of 3 Rats ([1]; PO gavage 5 mg/kg zoledronic acid equivalent, PEG 400, time 8 hour (Table 1)): 3.27 ng/mL
- Average plasma concentration of 3 Rats [1, 8]: 0.00 ng/mL

Compound: O=P(O)(O)C(O)(Cn1ccnc1)P(=O)(O)O [Zoledronic acid, (1-hydroxy-2-imidazol-1-yl-1-phosphono-ethyl)phosphonic acid]
- concentration at 0 h [2]: 0 ng/mL
- oral bioavailability ([3]; according to FDA Summary Basis of Approval): approximately 1%
- gastric and intestinal irritation ([3]; in vivo): severe gastric and intestinal irritations
- solubility in 0.1 N HCl solution ([4]; 0.1 N HCl solution): sparingly soluble
- solubility in 0.1 N NaOH ([4]; 0.1 N NaOH): freely soluble
- solubility in various organic solvents ([4]; various organic solvents): practically insoluble
- solubility in water ([4]; water): sparingly soluble

Compound: O=P(O)(O)C(O)(Cn1ccnc1)P(=O)(O)O [ZA monohydrate, Zoledronic acid monohydrate, reference compound]
- solubility ([5]; molar concentration of the complex, read-out: Aqueous solubility, mMol/L (complex)): 5.41 mmol/L
- solubility ([5]; read-out: Aqueous solubility, Conc.): 1570 µg/mL

Compound: Zoledronic, Nicotinamide, and Water Complex
- Average plasma concentration of 3 Rats [1, 6]: 0.00 ng/mL
- Average plasma concentration of 3 Rats [1, 7]: 0.00 ng/mL
- Average plasma concentration of 3 Rats [1, 8]: 0.00 ng/mL

Compound: NCCCCC(N)C(=O)O.O.O.O=P(O)(O)C(O)(Cn1ccnc1)P(=O)(O)O [ZA:L-Lysine dihydrate]
- Aqueous solubility, Conc. [5]: 8220 µg/mL
- Aqueous solubility, mMol/L (complex) [5, 9]: 18.09 mmol/L

Compound: NCCCCC(N)C(=O)O.O.O=P(O)(O)C(O)(Cn1ccnc1)P(=O)(O)O [ZA:DL-Lysine monohydrate]
- Aqueous solubility, Conc. [5]: 13900 µg/mL
- Aqueous solubility, mMol/L (complex) [5, 9]: 31.86 mmol/L
